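1) Cells in 96-well plates. 2) Compound, 48 h, 5 concentrations. 3) Linear interpolation between surrounding doses. 4) Unreached endpoint = highest concentration. Definition used: TGI = concentration required for complete inhibition of growth.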
What was measured:
Test in all cases: NCI-60 cell line screen, 48 h
[1] = system: PC-3 prostate
[2] = system: NCI-H23 lung
[3] = system: U251 CNS
[4] = system: SNB-75 CNS
[5] = system: MOLT-4 leukemia
[6] = system: SK-MEL-2 melanoma
[7] = system: SK-MEL-5 melanoma
[8] = system: MDA-MB-231 breast
[9] = system: T-47D breast
[10] = system: MDA-MB-435
[11] = system: SF-295 CNS
[12] = system: OVCAR-5 ovarian
[13] = system: NCI-H460 lung
[14] = system: SK-MEL-28 melanoma
[15] = system: SR leukemia
[16] = system: K-562 leukemia
[17] = system: DU-145 prostate
[18] = system: A549 NSCLC
[19] = system: SNB-19 CNS
[20] = system: NCI/ADR-RES ovarian
[21] = system: EKVX NSCLC
[22] = system: IGROV1 ovarian
[23] = system: HCT-15 colon
[24] = system: CCRF-CEM leukemia
[25] = system: HS 578T breast
[26] = system: SF-539 CNS
[27] = system: HOP-92 NSCLC
[28] = system: HT29 colon
[29] = system: KM12 colon
[30] = system: TK-10 renal
[31] = system: MCF7 breast
[32] = system: OVCAR-4 ovarian
[33] = system: MDA-N
[34] = system: OVCAR-8 ovarian
[35] = system: NCI-H522 lung
[36] = system: BT-549 breast
[37] = system: HOP-62 NSCLC
[38] = system: ACHN renal
[39] = system: HL-60(TB) leukemia
[40] = system: MALME-3M melanoma
[41] = system: HCC-2998 colon
[42] = system: SK-OV-3 ovarian
[43] = system: SN12C renal
[44] = system: HCT-116 colon
[45] = system: M14 melanoma
[46] = system: SF-268 CNS
[47] = system: OVCAR-3 ovarian
[48] = system: COLO 205 colon
[49] = system: SW-620 colon
[50] = system: 786-0 renal
[51] = system: RPMI-8226 leukemia
[52] = system: UACC-257 melanoma
[53] = system: CAKI-1 renal
[54] = system: UACC-62 melanoma
[55] = system: NCI-H226 lung
[56] = system: LOX IMVI melanoma
[57] = system: A498 renal
[58] = system: UO-31 renal

`Cc1c2ccccc2c(C)n2c1nc1cc3ccccc3cc12` was tested, and the TGI [1] was 2.79 µM, the TGI [2] was 2.8 µM and the TGI [3] was 3.7 µM. For the same molecule, the TGI [4] was 3.48 µM, the TGI [5] was 3.78 µM and the TGI [6] was 4.99 µM. The TGI [7] was 4.46 µM, the TGI [8] was 2.71 µM and the TGI [9] was > 10 µM. The TGI [10] was 3.07 µM, the TGI [11] was 2.28 µM and the TGI [12] was 2.29 µM. It also gave a TGI [13] of 2.55 µM, a TGI [14] of 2.92 µM and a TGI [15] of 7.34 µM. For the same molecule, the TGI [16] was > 10 µM, the TGI [17] was 2.78 µM and the TGI [18] was 3.6 µM. For the same molecule, the TGI [19] was 5.01 µM, the TGI [20] was 2.38 µM and the TGI [21] was 9.75 µM. The TGI [22] was 2.53 µM, the TGI [23] was 3.67 µM and the TGI [24] was 6.65 µM. The TGI [25] was 3.56 µM, the TGI [26] was 2.86 µM and the TGI [27] was 8.89 µM. For the same molecule, the TGI [28] was 2.15 µM, the TGI [29] was 2.62 µM and the TGI [30] was 8.43 µM. It also gave a TGI [31] of 1.6 µM, a TGI [32] of 3.12 µM and a TGI [33] of 2.89 µM. The TGI [34] was 2.21 µM, the TGI [35] was 4.88 µM and the TGI [36] was 3.98 µM. For the same molecule, the TGI [37] was 2.76 µM, the TGI [38] was > 10 µM and the TGI [39] was 4.59 µM. For the same molecule, the TGI [40] was 2.63 µM, the TGI [41] was 3.27 µM and the TGI [42] was 7.74 µM. For the same molecule, the TGI [43] was > 10 µM, the TGI [44] was 2.71 µM and the TGI [45] was 2.76 µM. The TGI [46] was 3.32 µM, the TGI [47] was 2.18 µM and the TGI [48] was 2.82 µM. For the same molecule, the TGI [49] was > 10 µM, the TGI [50] was 2.18 µM and the TGI [51] was 6.13 µM. The TGI [52] was > 10 µM, the TGI [53] was 2.89 µM and the TGI [54] was 3.9 µM.

In the case of `CC(=O)OC1(C)C(=O)OC/C2=C/CN(C)CCC(OC(=O)C(O)(C(C)Cl)CC1C)C2=O` (stereo not drawn), the TGI [1] is reported as > 100 µM, the TGI [55] is reported as > 100 µM and the TGI [2] is reported as > 100 µM. For the same molecule, the TGI [3] was > 100 µM, the TGI [4] was > 100 µM and the TGI [5] was > 100 µM. The TGI [6] was > 100 µM, the TGI [7] was > 100 µM and the TGI [8] was > 100 µM. For the same molecule, the TGI [9] was > 100 µM, the TGI [10] was > 100 µM and the TGI [11] was > 100 µM. The TGI [12] was > 100 µM, the TGI [56] was > 100 µM and the TGI [13] was > 100 µM. For the same molecule, the TGI [14] was > 100 µM, the TGI [15] was > 100 µM and the TGI [16] was > 100 µM. For the same molecule, the TGI [17] was > 100 µM, the TGI [18] was > 100 µM and the TGI [19] was > 100 µM. The TGI [20] was > 100 µM, the TGI [21] was > 100 µM and the TGI [22] was > 100 µM. The TGI [23] was > 100 µM, the TGI [57] was > 100 µM and the TGI [24] was > 100 µM. For the same molecule, the TGI [25] was > 100 µM, the TGI [26] was > 100 µM and the TGI [27] was > 100 µM. For the same molecule, the TGI [28] was > 100 µM, the TGI [29] was > 100 µM and the TGI [30] was > 100 µM. For the same molecule, the TGI [31] was > 100 µM, the TGI [32] was > 100 µM and the TGI [33] was > 100 µM. The TGI [34] was > 100 µM, the TGI [35] was > 100 µM and the TGI [36] was > 100 µM. For the same molecule, the TGI [37] was > 100 µM, the TGI [38] was > 100 µM and the TGI [58] was > 100 µM. The TGI [39] was > 100 µM, the TGI [41] was > 100 µM and the TGI [42] was > 100 µM. The TGI [43] was > 100 µM, the TGI [44] was > 100 µM and the TGI [45] was > 100 µM. For the same molecule, the TGI [46] was > 100 µM, the TGI [47] was > 100 µM and the TGI [48] was > 100 µM. For the same molecule, the TGI [49] was > 100 µM, the TGI [50] was > 100 µM and the TGI [51] was > 100 µM. The TGI [52] was > 100 µM, the TGI [53] was > 100 µM and the TGI [54] was > 100 µM.

For `COc1cc2c(cc1OC)C1c3ccccc3CCCN1CC2` (stereo not drawn), the TGI [1] was > 100 µM, the TGI [55] was > 100 µM and the TGI [2] was > 100 µM. The TGI [3] was > 100 µM, the TGI [4] was > 100 µM and the TGI [5] was > 100 µM. For the same molecule, the TGI [6] was > 100 µM, the TGI [7] was > 100 µM and the TGI [8] was > 100 µM. For the same molecule, the TGI [9] was > 100 µM, the TGI [10] was > 100 µM and the TGI [11] was > 100 µM. The TGI [12] was > 100 µM, the TGI [56] was > 100 µM and the TGI [14] was > 100 µM. For the same molecule, the TGI [15] was > 100 µM, the TGI [16] was > 100 µM and the TGI [17] was > 100 µM. The TGI [18] was > 100 µM, the TGI [19] was > 100 µM and the TGI [20] was > 100 µM. For the same molecule, the TGI [21] was > 100 µM, the TGI [22] was > 100 µM and the TGI [23] was > 100 µM. The TGI [57] was > 100 µM, the TGI [24] was > 100 µM and the TGI [25] was > 100 µM. For the same molecule, the TGI [26] was > 100 µM, the TGI [27] was > 100 µM and the TGI [28] was > 100 µM. For the same molecule, the TGI [29] was > 100 µM, the TGI [30] was > 100 µM and the TGI [31] was > 100 µM. The TGI [32] was > 100 µM, the TGI [33] was > 100 µM and the TGI [34] was > 100 µM. The TGI [35] was > 100 µM, the TGI [36] was > 100 µM and the TGI [37] was > 100 µM. For the same molecule, the TGI [38] was > 100 µM, the TGI [58] was > 100 µM and the TGI [39] was > 100 µM. For the same molecule, the TGI [40] was > 100 µM, the TGI [41] was > 100 µM and the TGI [42] was > 100 µM. For the same molecule, the TGI [43] was > 100 µM, the TGI [44] was > 100 µM and the TGI [45] was > 100 µM. The TGI [46] was > 100 µM, the TGI [47] was > 100 µM and the TGI [48] was > 100 µM. For the same molecule, the TGI [49] was > 100 µM, the TGI [50] was > 100 µM and the TGI [51] was > 100 µM. The TGI [52] was > 100 µM, the TGI [53] was > 100 µM and the TGI [54] was > 100 µM.

Source: PubChem BioAssay (NCI)
